We go through eight compounds from article PMC6757289, “Design and Characterization of SGK3-PROTAC1, an Isoform Specific SGK3 Kinase PROTAC Degrader” (ACS Chemical Biology, 2019).

Assay [1] relates to CAMA-1 cells. The experiment in a line: Cell growth (confluency, Incucyte S3). The class given is cell-based. As to conditions: CAMA-1, 1 μM. Here is the method: (§1) Figure 6 SGK3-PROTAC1-mediated degradation of SGK3 further inhibiting the growth of cancer cell lines treated with PI3K-Akt pathway inhibitors. CAMA-1 (A, C) and ZR-75-1 (B, D) were treated with compounds as indicated either as monotherapy or in combination, and confluency was measured on the Incucyte S3 every 4 h for up to 4 weeks.
(§2) For growth assays, ZR-75-1 cells were seeded in 96-well plates at a density of 6000 cells/well and left to adhere overnight. Cells were then treated with compounds as described in the figure legends and imaged every 4 h on the Incucyte S3 (Essen Bioscience) for up to 4 weeks to give a measure of cell confluency. Media were refreshed every 4–5 days.
(§3) Supplementary Figure S3. SGK3-PROTAC compounds have no effect on cell growth. CAMA-1 and ZR-75-1
(§4) confluency was m easured every 4 h on Incucyte S3.
(§5) (1 picture or pasted object on this page, not shown here)

Assay [2] deals with ZR-75-1 cells. Put plainly: Cell growth (confluency, Incucyte S3). It counts as cell-based. The conditions noted are these: ZR-75-1, 1 μM. How it is done:
as §1, §2, §3, §4, §5

In assay [3] the target is S6K1 (Homo sapiens, UniProt P23443, T412E). Put plainly: IC50 determination, biochemical kinase assay. As to conditions: not in the presence of VHL. How it is done: (§6) IC50 determination was performed at the MRC PPU International Centre for Protein Kinase Profiling, according to the protocol previously described[47],[48]
Chain of S6K1 (P23443 1-421 T412E limits assumed): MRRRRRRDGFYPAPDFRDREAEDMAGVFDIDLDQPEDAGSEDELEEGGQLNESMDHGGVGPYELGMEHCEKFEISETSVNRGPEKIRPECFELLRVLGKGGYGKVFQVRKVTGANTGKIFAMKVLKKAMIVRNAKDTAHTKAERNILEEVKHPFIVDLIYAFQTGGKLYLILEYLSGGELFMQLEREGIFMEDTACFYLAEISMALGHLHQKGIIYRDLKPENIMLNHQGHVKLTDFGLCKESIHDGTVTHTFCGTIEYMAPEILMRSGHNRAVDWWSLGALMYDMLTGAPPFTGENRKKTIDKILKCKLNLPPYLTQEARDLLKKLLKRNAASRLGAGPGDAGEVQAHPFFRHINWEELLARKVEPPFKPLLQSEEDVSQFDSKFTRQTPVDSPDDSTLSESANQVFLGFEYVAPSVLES
In assay [4] the target is T1, SGK3 (Homo sapiens, UniProt Q96BR1).
T1 sequence (Q96BR1 1-496): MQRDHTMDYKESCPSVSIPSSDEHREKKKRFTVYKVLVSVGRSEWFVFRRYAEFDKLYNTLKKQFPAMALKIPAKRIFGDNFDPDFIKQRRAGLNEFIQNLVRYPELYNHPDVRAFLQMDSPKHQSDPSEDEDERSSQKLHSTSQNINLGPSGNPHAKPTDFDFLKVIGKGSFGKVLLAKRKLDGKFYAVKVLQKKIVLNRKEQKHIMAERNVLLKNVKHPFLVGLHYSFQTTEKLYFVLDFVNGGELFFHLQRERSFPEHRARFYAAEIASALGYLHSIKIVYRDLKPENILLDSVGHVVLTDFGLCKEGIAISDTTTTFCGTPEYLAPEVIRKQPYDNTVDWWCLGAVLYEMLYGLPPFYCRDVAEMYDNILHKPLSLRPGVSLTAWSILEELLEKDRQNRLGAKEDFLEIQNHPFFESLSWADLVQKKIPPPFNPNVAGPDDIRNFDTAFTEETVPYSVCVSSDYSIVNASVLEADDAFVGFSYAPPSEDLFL
Put plainly: IC50 determination, biochemical kinase assay. As to conditions: for IC50: not in the presence of VHL. How it is done:
as §6

Assay [5] has as its target T2, SGK1 (Homo sapiens, UniProt O00141, S422D).
T2 sequence (O00141 60-431 S422D limits assumed): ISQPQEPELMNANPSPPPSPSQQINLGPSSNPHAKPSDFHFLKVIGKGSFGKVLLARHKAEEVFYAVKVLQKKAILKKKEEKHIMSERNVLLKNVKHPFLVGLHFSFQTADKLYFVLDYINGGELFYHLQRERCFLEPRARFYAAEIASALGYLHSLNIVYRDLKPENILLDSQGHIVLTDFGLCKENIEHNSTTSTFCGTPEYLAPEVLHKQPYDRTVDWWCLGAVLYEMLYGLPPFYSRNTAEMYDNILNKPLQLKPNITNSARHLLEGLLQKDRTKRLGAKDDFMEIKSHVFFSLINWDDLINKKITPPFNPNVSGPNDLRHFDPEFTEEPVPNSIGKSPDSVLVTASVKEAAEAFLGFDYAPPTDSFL
The experiment in a line: IC50 determination, biochemical kinase assay. The conditions noted are these: not in the presence of VHL.

Assay [6] concerns the target T1, SGK3. The experiment in a line: SGK3 degradation in HEK293 cells, immunoblot. It counts as cell-based. As to conditions: for effect on SGK3-PROTAC1-mediated degradation of SGK3: HEK293, pretreatment, 6 h 0.3 µM SGK3-PROTAC1; for effect on DAT1-induced degradation of SGK3: HEK293, MLN4924 3 μM, MG132 50 μM. On the set-up: reduced endogenous SGK isoform or S6K1 expression when administered to HEK293 cells for 48 h; endogenous in cells; host or cells: HEK293. Here is the method: Figure 1 Design and cellular activity of first generation SGK3 PROTACs. (A) Structure of compound 14H, previously published by Sanofi as an inhibitor of SGK3. (B) Starting material for SGK PROTACs. […] (C) Structures of first generation SGK PROTACs. SGK and E3 ligase targeting motifs were joined by a 3xPEG linker to produce the PROTACs. (D) HEK293 cells were treated for 48 h with increasing concentrations of each PROTAC compound from 0.1 nM to 10 μM. Cell lysates were subjected to immunoblot analysis with the indicated antibodies, and SGK3 protein levels were quantified in Image Studio Lite software (Licor).
Figure 2 Design and cellular evaluation of second and third generation SGK PROTACs. (A) Chemical structure of compounds DAT5–12, expanding upon DAT1. (B) Chemical structure of cisSGK3-PROTAC1. (C) HEK293 cells were treated for 48 h with increasing concentrations of each PROTAC compound from 1 nM to 10 μM. Cell lysates were subjected to immunoblot analysis with the indicated antibodies, and SGK3 protein levels quantified in Image Studio Lite software. (D) HEK293 cells were treated for 48 h with increasing concentrations of each PROTAC compound from 1 nM to 10 μM. Cell lysates were subjected to immunoblot analysis with the indicated antibodies, and SGK3 and S6K1 protein levels were quantified in Image Studio Lite software. TEXT PRINTED IN THE PICTURE: (C) DAT1: % SGK3: 100 (48h Treatment (μM): 0); % SGK3: 94 (48h Treatment (μM): 0.001); % SGK3: 82 (48h Treatment (μM): 0.01); % SGK3: 70 (48h Treatment (μM): 0.1); % SGK3: 52 (48h Treatment (μM): 1); % SGK3: 31 (48h Treatment (μM): 10) | (C) DAT5: % SGK3: 100 (48h Treatment (μM): 0); % SGK3: 104 (48h Treatment (μM): 0.001); % SGK3: 82 (48h Treatment (μM): 0.01); % SGK3: 92 (48h Treatment (μM): 0.1); % SGK3: 73 (48h Treatment (μM): 1); % SGK3: 36 (48h Treatment (μM): 10) | (C) DAT6: % SGK3: 100 (48h Treatment (μM): 0); % SGK3: 105 (48h Treatment (μM): 0.001); % SGK3: 90 (48h Treatment (μM): 0.01); % SGK3: 71 (48h Treatment (μM): 0.1); % SGK3: 44 (48h Treatment (μM): 1); % SGK3: 20 (48h Treatment (μM): 10) | (C) DAT7: % SGK3: 100 (48h Treatment (μM): 0); % SGK3: 77 (48h Treatment (μM): 0.001); % SGK3: 80 (48h Treatment (μM): 0.01); % SGK3: 95 (48h Treatment (μM): 0.1); % SGK3: 37 (48h Treatment (μM): 1); % SGK3: 29 (48h Treatment (μM): 10) | (D) DAT8: % SGK3: 100 (48h Treatment (μM): 0); % SGK3: 97 (48h Treatment (μM): 0.001); % SGK3: 107 (48h Treatment (μM): 0.01); % SGK3: 34 (48h Treatment (μM): 0.1); % SGK3: 24 (48h Treatment (μM): 1); % SGK3: 19 (48h Treatment (μM): 10) | (D) DAT9: % SGK3: 100 (48h Treatment (μM): 0); % SGK3: 105 (48h Treatment (μM): 0.001); % SGK3: 71 (48h Treatment (μM): 0.01); % SGK3: 40 (48h Treatment (μM): 0.1); % SGK3: 11 (48h Treatment (μM): 1); % SGK3: 12 (48h Treatment (μM): 10) | (D) DAT10: % SGK3: 100 (48h Treatment (μM): 0); % SGK3: 100 (48h Treatment (μM): 0.001); % SGK3: 76 (48h Treatment (μM): 0.01); % SGK3: 54 (48h Treatment (μM): 0.1); % SGK3: 11 (48h Treatment (μM): 1); % SGK3: 9 (48h Treatment (μM): 10) | (D) DAT11: % SGK3: 100 (48h Treatment (μM): 0); % SGK3: 96 (48h Treatment (μM): 0.001); % SGK3: 97 (48h Treatment (μM): 0.01); % SGK3: 41 (48h Treatment (μM): 0.1); % SGK3: 32 (48h Treatment (μM): 1); % SGK3: 29 (48h Treatment (μM): 10) | (D) DAT12: % SGK3: 100 (48h Treatment (μM): 0); % SGK3: 106 (48h Treatment (μM): 0.001); % SGK3: 84 (48h Treatment (μM): 0.01); % SGK3: 79 (48h Treatment (μM): 0.1); % SGK3: 32 (48h Treatment (μM): 1); % SGK3: 29 (48h Treatment (μM): 10) DOUBTS OF THE COPYIST ABOUT THIS PICTURE: All % SGK3 values are quantification numbers printed under immunoblot lanes; each was assigned to a concentration by lane position / DAT9 and DAT10, % SGK3: the first numbers are printed run together ('100105', '100100') and were split as 100 | 105 and 100 | 100
Figure 3 Characterization of cellular activities of SGK3-PROTAC1 and cisSGK3-PROTAC1. […]
(Immunoblotting shows a protein as a band on a membrane.)

Each structure is given as a SMILES string. Where a SMILES comes first, the peptide text is derived from it. The star is where a group is joined. Cbz = O=C(OCc1ccccc1)*

A word on the IC50: it is the concentration at which inhibition is half-maximal. The term remaining activity denotes the signal under treatment as a percentage of the control signal.

Take `NC1(C(=O)N[C@@H](CCO)c2ccc(Cl)cc2)CCN(c2ncnc3[nH]ccc23)CC1` [AZD5363, reference compound]: the “growth, PI3K or Akt inhibitor monotherapy” value in assay [1] and in assay [2] was “substantially reduced growth” each time.

With `COc1ccc(Cl)c(S(=O)(=O)Nc2ccc(-c3nc(OC[C@H]4CN(CCOCCOCCOCC(=O)N[C@H](C(=O)N5C[C@H](O)C[C@H]5C(=O)NCc5ccc(-c6scnc6C)cc5)C(C)(C)C)CCO4)c4c(C)n[nH]c4n3)cc2)c1` [DAT2], the IC50 in assay [3] came out at 180 nM; in assay [4] it was 190 nM; in assay [5] it was 400 nM. Moreover, in assay [4] (SGK1 and SGK3), the “fold more potent inhibition of SGK1 and SGK3 than DAT1” value was 2–4 fold.

Consider `Cc1ccc(F)c(S(=O)(=O)Nc2ccc(-c3nc(OC[C@H]4CN(CCOCCOCCOCC(=O)NCCNc5cccc6c5C(=O)N(C5CCC(=O)NC5=O)C6=O)CCO4)c4cn[nH]c4n3)cc2)c1` (some centres unmarked) [DAT3], for which the figures for the IC50 in assay [3], in assay [4] and in assay [5] were 240 nM, 640 nM and 1000 nM, respectively.

With `COc1ccc(Cl)c(S(=O)(=O)Nc2ccc(-c3nc(OC[C@H]4CN(CCOCCOCCOCC(=O)NCCNc5cccc6c5C(=O)N(C5CCC(=O)NC5=O)C6=O)CCO4)c4c(C)n[nH]c4n3)cc2)c1` (some centres unmarked) [DAT4], the results for the IC50 in assay [3], in assay [4] and in assay [5] were 190 nM, 540 nM and 600 nM, respectively.

In the case of `Cc1ccc(F)c(S(=O)(=O)Nc2ccc(-c3nc(OC[C@H]4CN(CCCCCCOCCOCCOCCOCC(=O)N[C@H](C(=O)N5C[C@H](O)C[C@H]5C(=O)NCc5ccc(-c6scnc6C)cc5)C(C)(C)C)CCO4)c4cn[nH]c4n3)cc2)c1` [DAT9], the IC50 is 4530 nM in assay [3], 1790 nM in assay [4] and 8990 nM in assay [5]. Besides, the remaining activity at 0.001 µM in assay [6] (HEK293, 48 h, 0.001 μM, Figure 2) stood at 105%. Also, the remaining activity at 0.01 µM in assay [6] (HEK293, 48 h, 0.01 μM, Figure 2) worked out at 71%. For the same compound, in assay [6] (HEK293, 48 h, 0.1 μM, Figure 2), the remaining activity at 0.1 µM amounted to 40%. The remaining activity at 1 µM in assay [6] (HEK293, 48 h, 1 μM, Figure 2) stood at 11%. Further, the remaining activity at 10 µM in assay [6] (HEK293, 48 h, 10 μM, Figure 2) was 12%.

As to `CS(=O)(=O)N1CCN(Cc2cc3nc(-c4cccc5[nH]ncc45)nc(N4CCOCC4)c3s2)CC1` [GDC0941, 2-(1H-Indazol-4-Yl)-6-(4-Methanesulfonyl-Piperazin-1-Ylmethyl)-4-Morpholin-4-Yl-t Hieno[3,2-d]Pyrimidine, reference compound], the “growth, PI3K or Akt inhibitor monotherapy” value in assay [1] and in assay [2] was “substantially reduced growth” in each case.

In the case of `CC(C)C[C@@H](C=O)NC(=O)[C@H](CC(C)C)NC(=O)[C@H](CC(C)C)NC(=O)OCc1ccccc1` [MG132, reference compound] (Cbz-Leu-Leu-Leu-aldehyde), in assay [6], the “effect on SGK3-PROTAC1-mediated degradation of SGK3” value is reported as “prevented” and the “effect on DAT1-induced degradation of SGK3” value is “blocked”.

As to `NS(=O)(=O)OC[C@@H]1C[C@@H](n2ccc3c(N[C@H]4CCc5ccccc54)ncnc32)C[C@@H]1O` [MLN4924, reference compound], in assay [6], the “effect on SGK3-PROTAC1-mediated degradation of SGK3” value is “prevented” and the “effect on DAT1-induced degradation of SGK3” value is on record as “blocked”.
